The subject of data set [1] is SARS-CoV-2 virus. It counts as cell-based.
The test system of data set [2] is SARS-CoV-2 virus. It counts as cell-based. As to conditions: read-out: Reduction in infectious virus (EC50).
Data set [3] relates to SARS-CoV-2 virus. It counts as cell-based. As to conditions: read-out: Reduction in viral RNA copy (EC50).
The subject of data set [4] is SARS-CoV-2 virus. It counts as cell-based. The source holds these as a separate data set.

Results on nine compounds are retold here after publication PMC7127386 (Antiviral Research, 2020).

“Also recorded” adds a separate entry of the source. Where two headings read alike, the source gives them in different places.

Usually EC50 stands for the concentration giving half of the maximal effect. Usually CC50 stands for the concentration at which the toxic effect on the cells reaches its halfway point. Read a low CC50 as greater toxicity to the cells.

Regarding `CCC(CC)O[C@@H]1C=C(C(=O)O)C[C@H](N)[C@H]1NC(C)=O` [Oseltamivir carboxylate], in the data set with SARS-CoV-2 virus [1], the “CPE inhibition (lowest concentration of the compound with 100% CPE inhibition)” value is over 100 µM. For the same compound, the EC50 in the data set with SARS-CoV-2 virus [2] and in the data set with SARS-CoV-2 virus [3] was over 100 µM throughout. For the same compound, the “Antiviral effect against SARS-CoV-2 virus in vitro (in words)” value (“Antiviral effect” below) in the data set with SARS-CoV-2 virus [4] is given as “no apparent antiviral effect”. Also, the CC50 with Vero E6 cells is over 100 µM.
For `NC(=O)c1nc(F)c[nH]c1=O` [Favipiravir], in the data set on SARS-CoV-2 virus [4], the “Antiviral effect” value is reported as “no apparent antiviral effect; also recorded: did not inhibit viral replication” and the “Inhibition of SARS-CoV-2 (in words)” value was “no inhibition”.
Regarding `CN[C@H](CC(C)C)C(=O)N[C@H]1C(=O)N[C@@H](CC(N)=O)C(=O)N[C@H]2C(=O)N[C@H]3C(=O)N[C@H](C(=O)N[C@H](C(=O)O)c4cc(O)cc(O)c4-c4cc3ccc4O)[C@H](O[C@H]3C[C@](C)(N)[C@@H](O)[C@H](C)O3)c3ccc(c(Cl)c3)Oc3cc2cc(c3O[C@@H]2O[C@H](CO)[C@@H](O)[C@H](O)[C@H]2O[C@H]2C[C@](C)(NCc3ccc(-c4ccc(Cl)cc4)cc3)[C@@H](O)[C@H](C)O2)Oc2ccc(cc2Cl)[C@H]1O.O=P(O)(O)O.O=P(O)(O)O` [Oritavancin diphosphate], in the data set on SARS-CoV-2 virus [1], the “CPE inhibition (lowest concentration of the compound with 100% CPE inhibition)” value is over 100 µM.
With `Nc1nc(F)nc2c1ncn2[C@@H]1O[C@H](COP(=O)(O)O)[C@@H](O)[C@@H]1O` [Fludarabine phosphate], in the data set with SARS-CoV-2 virus [4], the “Antiviral effect” value is reported as “did not inhibit viral replication”.
For `CN[C@H]1C(=O)N[C@@H]2Cc3ccc(cc3)Oc3cc4cc(c3O[C@@H]3O[C@H](C(=O)O)[C@@H](O)[C@H](O)[C@H]3NC(=O)CCCCCCCCC(C)C)Oc3ccc(cc3Cl)[C@@H](O)[C@@H]3NC(=O)[C@H](NC(=O)[C@@H]4NC(=O)[C@@H](NC2=O)c2cc(cc(O)c2Cl)Oc2cc1ccc2O)c1ccc(O)c(c1)-c1c(O[C@H]2O[C@H](CO)[C@@H](O)[C@H](O)[C@@H]2O)cc(O)cc1[C@@H](C(=O)NCCCN(C)C)NC3=O.Cl` [Dalbavancin hydrochloride], in the data set with SARS-CoV-2 virus [1], the “CPE inhibition (lowest concentration of the compound with 100% CPE inhibition)” value was over 100 µM.
On to `[N-]=[N+]=N[C@]1(CO)O[C@@H](n2ccc(N)nc2=O)[C@H](O)[C@@H]1O` [R-1479], for which the “CPE inhibition (lowest concentration of the compound with 100% CPE inhibition)” value in the data set with SARS-CoV-2 virus [1] was over 100 µM. The “Antiviral effect” value with SARS-CoV-2 virus [4] is recorded as “did not inhibit viral replication”. Also, in the data set with Vero E6 cells, the half-maximal cytotoxic concentration (CC50) is over 100 µM.
`C[C@H](Cn1cnc2c(N)ncnc21)OCP(=O)(O)O` [Tenofovor]: in the data set on SARS-CoV-2 virus [4], the “Antiviral effect” value was “did not inhibit viral replication”.
With `NC(=O)c1ncn([C@@H]2O[C@H](CO)[C@@H](O)[C@H]2O)n1` [Ribavirin], in the data set on SARS-CoV-2 virus [4], the “Antiviral effect” value was “no apparent antiviral effect; also recorded: did not inhibit viral replication” and the “Inhibition of SARS-CoV-2 (in words)” value is given as “no inhibition”.
Consider `Nc1ncnc2c([C@@H]3N[C@H](CO)[C@@H](O)[C@H]3O)c[nH]c12` [Galidesivir], for which, in the data set with SARS-CoV-2 virus [4], the “Antiviral effect” value is “did not inhibit viral replication”.
